Results filed as inconclusive are left out.

EC50 data for 1 compound are collected here from PubChem BioAssay AID1919672.

The assay concerns the target Excitatory amino acid transporter 2 (Homo sapiens) (UniProt P43004). Description: wild-type SLC1A2 aspartate uptake modulators, dose response, HEK293 overexpressing cells, iAspSnFR biosensor, flow cytometry (AID 1919672). Particulars: HEK293 SLC1A2-OE. (A flow cytometer gives signals particle by particle.)

Excitatory amino acid transporter 2 (Homo sapiens), sequence (P43004 whole entry, looked up): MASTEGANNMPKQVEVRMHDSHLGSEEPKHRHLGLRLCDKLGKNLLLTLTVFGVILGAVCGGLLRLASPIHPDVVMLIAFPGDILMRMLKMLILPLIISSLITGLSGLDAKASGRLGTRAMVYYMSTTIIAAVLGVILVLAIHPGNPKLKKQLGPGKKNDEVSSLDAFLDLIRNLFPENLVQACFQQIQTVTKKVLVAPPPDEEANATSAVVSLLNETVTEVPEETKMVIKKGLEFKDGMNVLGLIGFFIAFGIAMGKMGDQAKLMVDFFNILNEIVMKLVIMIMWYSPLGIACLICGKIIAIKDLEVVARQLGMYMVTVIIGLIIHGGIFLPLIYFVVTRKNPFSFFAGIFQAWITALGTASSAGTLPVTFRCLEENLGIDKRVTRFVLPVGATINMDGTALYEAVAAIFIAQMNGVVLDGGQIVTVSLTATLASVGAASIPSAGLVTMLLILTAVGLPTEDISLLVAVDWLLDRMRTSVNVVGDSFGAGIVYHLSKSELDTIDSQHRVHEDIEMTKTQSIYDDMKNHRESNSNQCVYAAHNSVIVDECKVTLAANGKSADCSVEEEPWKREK

As to `N[C@@H](CC(=O)O)C(=O)O`, the EC50 was 11 µM.

The term EC50 denotes the concentration giving half of the maximal effect.
